{
  "source": "patent EP2042491A1",
  "about": "“Pyridazines as fungicides” (Bayer CropScience AG, priority 2007, dated 2009)",
  "key": {"Septoria tritici": {"tested_on": "Septoria tritici", "assay": "Septoria tritici test (wheat) / protective", "assay_type": "in vivo", "conditions": "1000 ppm active compound; protective spray on young wheat plants; evaluated 21 days after inoculation; 0% = as control, 100% = no infection", "source_text": "(§1) Zur Herstellung einer zweckmäßigen Wirkstoffzubereitung vermischt man 1 Gewichtsteil Wirkstoff mit den angegebenen Mengen Lösungsmittel und Emulgator und verdünnt das Konzentrat mit Wasser auf die gewünschte Konzentration.\n(§2) Zur Prüfung auf protektive Wirksamkeit werden junge Pflanzen mit der Wirkstoffzubereitung in der angegebenen Aufwandmenge besprüht. Nach Antrocknen des Spritzbelages werden die Pflanzen mit einer Sporensuspension von Septoria tritici besprüht. Die Pflanzen verbleiben 48 Stunden bei 20 °C und 100 % relativer Luftfeuchtigkeit in einer Inkubationskabine.\nDie Pflanzen werden in einem Gewächshaus bei einer Temperatur von ca. 15 °C und einer relativen Luftfeuchtigkeit von 80 % aufgestellt.\n21 Tage nach der Inokulation erfolgt die Auswertung. Dabei bedeutet 0% ein Wirkungsgrad, der demjenigen der Kontrolle entspricht, während ein Wirkungsgrad von 100% bedeutet, daß kein Befall beobachtet wird."}, "Botrytis cinerea": {"tested_on": "Botrytis cinerea", "assay": "Botrytis cinerea test (bean) / protective", "assay_type": "in vivo", "conditions": "100 ppm active compound; protective spray on young bean plants; lesion size evaluated 2 days after inoculation; 0% = as control, 100% = no infection", "source_text": "as §1\nZur Prüfung auf protektive Wirksamkeit werden junge Pflanzen mit der Wirkstoffzubereitung in der angegebenen Aufwandmenge besprüht. Nach Antrocknen des Spritzbelages werden auf jedes Blatt 2 kleine mit Botrytis cinerea bewachsene Agarstückchen aufgelegt. Die inokulierten Pflanzen werden in einer abgedunkelten Kammer bei ca. 20 °C und 100% relativer Luftfeuchtigkeit aufgestellt.\n2 Tage nach der Inokulation wird die Größe der Befallsflecken auf den Blättern ausgewertet. Dabei bedeutet 0% ein Wirkungsgrad, der demjenigen der Kontrolle entspricht, während ein Wirkungsgrad von 100% bedeutet, daß kein Befall beobachtet wird."}, "Venturia inaequalis": {"tested_on": "Venturia inaequalis", "assay": "Venturia inaequalis test (apple) / protective", "assay_type": "in vivo", "conditions": "100 ppm active compound; protective spray on young apple plants; evaluated 10 days after inoculation; 0% = as control, 100% = no infection", "source_text": "as §1\nZur Prüfung auf protektive Wirksamkeit werden junge Pflanzen mit der Wirkstoffzubereitung in der angegebenen Aufwandmenge besprüht. Nach Antrocknen des Spritzbelages werden die Pflanzen mit einer wäßrigen Konidiensuspension des Apfelschorferregers Venturia inaequalis inokuliert und verbleiben dann 1 Tag bei ca. 20 °C und 100% relativer Luftfeuchtigkeit in einer Inkubations-kabine.\nDie Pflanzen werden dann im Gewächshaus bei ca. 21 °C und einer relativen Luftfeuchtigkeit von ca. 90% aufgestellt.\n(§3) 10 Tage nach der Inokulation erfolgt die Auswertung. Dabei bedeutet 0% ein Wirkungsgrad, der demjenigen der Kontrolle entspricht, während ein Wirkungsgrad von 100% bedeutet, daß kein Befall beobachtet wird."}, "Pyricularia oryzae": {"tested_on": "Pyricularia oryzae", "assay_type": "in vivo", "conditions": "500 ppm active compound; protective spray on young rice plants; evaluated 7 days after inoculation; 0% = as control, 100% = no infection"}, "Alternaria solani": {"tested_on": "Alternaria solani", "assay_type": "in vivo", "conditions": "168 h, 500 ppm", "procedure": "as §1\nZur Prüfung auf protektive Wirksamkeit bespritzt man junge Tomatenpflanzen mit der Wirkstoffzubereitung in der angegebenen Aufwandmenge. 1 Tag nach der Behandlung werden die Pflanzen mit einer Sporensuspension von Alternaria solani inokuliert und stehen dann 24h bei 100% rel. Feuchte und 20°C. Anschließend stehen die Pflanzen bei 96% rel. Luftfeuchtigkeit und einer Temperatur von 20 C.\n7 Tage nach der Inokulation erfolgt die Auswertung. Dabei bedeutet 0 % ein Wirkungsgrad, der demjenigen der Kontrolle entspricht, während ein Wirkungsgrad von 100 % bedeutet, dass kein Befall beobachtet wird."}, "[1]": {"conditions": "HPLC on reversed-phase C18, 40°C, 0.1% aqueous formic acid / acetonitrile, linear gradient 10-95% acetonitrile"}, "Leptosphaeria nodorum": {"tested_on": "Leptosphaeria nodorum", "assay": "Leptosphaeria nodorum test (wheat) / protective", "assay_type": "in vivo", "conditions": "1000 ppm active compound; protective spray on young wheat plants; evaluated 10 days after inoculation; 0% = as control, 100% = no infection", "source_text": "as §1\nas §2, with “Leptosphaeria nodor um” for “Septoria tritici”\nDie Pflanzen werden in einem Gewächshaus bei einer Temperatur von ca. 20 °C und einer relativen Luftfeuchtigkeit von 80 % aufgestellt.\nas §3"}, "Sphaerotheca fuliginea": {"tested_on": "Sphaerotheca fuliginea", "assay": "Sphaerotheca fuliginea test (cucumber) / protective", "assay_type": "in vivo", "conditions": "500 ppm active compound; protective spray on young cucumber plants; evaluated 7 days after inoculation; 0% = as control, 100% = no infection", "source_text": "as §1\nZur Prüfung auf protektive Wirksamkeit bespritzt man junge Gurkenpflanzen mit der Wirkstoffzubereitung in der angegebenen Aufwandmenge. 1 Tag nach der Behandlung werden die Pflanzen mit einer Sporensuspension von Sphaerotheca fuliginea inokuliert. Anschließend werden die Pflanzen in einem Gewächshaus bei 70 % relativer Luftfeuchtigkeit und einer Temperatur von 23 °C aufgestellt.\n7 Tage nach der Inokulation erfolgt die Auswertung. Dabei bedeutet 0 % ein Wirkungsgrad, der demjenigen der Kontrolle entspricht, während ein Wirkungsgrad von 100 % bedeutet, daß kein Befall beobachtet wird."}},
  "note": "Like-named read-outs stand apart in the source and are kept apart here.",
  "data": [
    {"compound": "Cc1nnc(Cl)c(-c2c(F)cccc2Cl)c1N1CCC(C)CC1", "note": "[1-93, 3-Chlor-4-(2-chlor-6-fluorphenyl)-6-methyl-5-(4-methylpiperidin-1-yl)pyridazin]", "values": [
      {"measurement": "Wirkungsgrad", "setting": "Septoria tritici", "value": "≥ 70", "unit": "%"},
      {"measurement": "Wirkungsgrad", "setting": "Botrytis cinerea", "value": "≥ 70", "unit": "%"},
      {"measurement": "Wirkungsgrad", "setting": "Venturia inaequalis", "value": "≥ 70", "unit": "%"},
      {"measurement": "chromatographic logP", "setting": "physchem", "value": 4.11},
      {"measurement": "Wirkungsgrad", "setting": "Pyricularia oryzae", "value": "≥ 70", "unit": "%"},
      {"measurement": "Wirkungsgrad", "setting": "Alternaria solani", "value": "≥ 70", "unit": "%"},
      {"measurement": "logP^a)", "setting": "[1]; Table 1", "value": "4,11"},
      {"measurement": "Wirkungsgrad", "setting": "Leptosphaeria nodorum", "value": "≥ 70", "unit": "%"}
    ]},
    {"compound": "Cc1nnc(Cl)c(-c2c(F)cccc2Cl)c1N[C@H](C)C(C)C", "note": "[1-100]", "values": [
      {"measurement": "Wirkungsgrad", "setting": "Sphaerotheca fuliginea", "value": "≥ 70", "unit": "%"},
      {"measurement": "chromatographic logP", "setting": "physchem", "value": 3.22},
      {"measurement": "Wirkungsgrad", "setting": "Pyricularia oryzae", "value": "≥ 70", "unit": "%"},
      {"measurement": "Wirkungsgrad", "setting": "Alternaria solani", "value": "≥ 70", "unit": "%"}
    ]},
    {"compound": "Cc1nnc(Cl)c(-c2c(F)cccc2Cl)c1OC1CCCCC1", "note": "[2-59]", "values": [
      {"measurement": "Wirkungsgrad", "setting": "Sphaerotheca fuliginea", "value": "≥ 70", "unit": "%"},
      {"measurement": "chromatographic logP", "setting": "physchem", "value": 4.25},
      {"measurement": "Wirkungsgrad", "setting": "Pyricularia oryzae", "value": "≥ 70", "unit": "%"}
    ]},
    {"compound": "Cc1nnc(Cl)c(-c2c(F)cccc2Cl)c1Oc1ccc(Cl)cc1", "note": "[2-61, 3-Chlor-4-(2-chlor-6-fluorphenyl)-5-(4-chlorphenoxy)-6-methylpyridazin]", "values": [
      {"measurement": "Wirkungsgrad", "setting": "Septoria tritici", "value": "≥ 70", "unit": "%"},
      {"measurement": "Wirkungsgrad", "setting": "Venturia inaequalis", "value": "≥ 70", "unit": "%"},
      {"measurement": "logP^a)", "setting": "[1]; Table 2", "value": "4,13"},
      {"measurement": "Wirkungsgrad", "setting": "Leptosphaeria nodorum", "value": "≥ 70", "unit": "%"}
    ]}
  ]
}
